Test results: ChEMBL document CHEMBL3885881, “DrugMatrix”

Species on record: Rattus norvegicus
Test: DrugMatrix - Regimen: Daily Repeat
Format: toxicity, organism-based, Sprague-Dawley
Set-up: regimen Daily Repeat, gender Male, age 6-8 weeks
Conditions: in vivo, po, route oral GAVAGE, […]; for ABSOLUTE BASOPHIL / ABSOLUTE EOSINOPHIL / ABSOLUTE LYMPHOCYTE / ABSOLUTE MONOCYTE / ABSOLUTE SEGMENTED NEUTROPHIL / BASOPHIL / EOSINOPHIL / ERYTHROCYTE COUNT / HEMATOCRIT / HEMOGLOBIN / LEUKOCYTE COUNT / LYMPHOCYTE / MEAN CORPUSCULAR HEMOGLOBIN / MEAN CORPUSCULAR HEMOGLOBIN CONCENTRATION / MEAN CORPUSCULAR VOLUME / MONOCYTE / NEUTROPHIL / NUCLEATED RED BLOOD CELLS / PLATELET COUNT: tissue Blood; for ALANINE AMINOTRANSFERASE / ALBUMIN / ALKALINE PHOSPHATASE / ASPARTATE AMINOTRANSFERASE / BLOOD UREA NITROGEN / CARBON DIOXIDE / CHLORIDE / CHOLESTEROL / CREATINE PHOSPHOKINASE / CREATININE / GLUCOSE / LACTATE DEHYDROGENASE / LIPASE / PHOSPHORUS / POTASSIUM / SODIUM / TOTAL BILIRUBIN / TOTAL PROTEIN / URIC ACID: tissue Plasma
[1] = 0 mg/kg, 72 h, dose level Control, time 3 day
[2] = 0 mg/kg, 120 h, dose level Control, time 5 day
[3] = 30 mg/kg, 72 h, dose level Low, time 3 day
[4] = 30 mg/kg, 120 h, dose level Low, time 5 day

CS(=O)(=O)Nc1ccc([N+](=O)[O-])cc1Oc1ccccc1 [NIMESULIDE]
ABSOLUTE BASOPHIL [1]: 0 CELLS/uL | ABSOLUTE EOSINOPHIL [1]: 0 CELLS/uL | ABSOLUTE LYMPHOCYTE [1]: 7601 CELLS/uL | ABSOLUTE MONOCYTE [1]: 354.33 CELLS/uL | ABSOLUTE SEGMENTED NEUTROPHIL [1]: 744.67 CELLS/uL | BASOPHIL [1]: 0% | EOSINOPHIL [1]: 0% | ERYTHROCYTE COUNT [1]: 5.03 x10E6/uL | HEMATOCRIT [1]: 33.7% | HEMOGLOBIN [1]: 13.43 G/DL | LEUKOCYTE COUNT [1]: 8.7 x10E3/uL | LYMPHOCYTE [1]: 86.33% | MEAN CORPUSCULAR HEMOGLOBIN [1]: 26.7 pg | MEAN CORPUSCULAR HEMOGLOBIN CONCENTRATION [1]: 39.83 G/DL | MEAN CORPUSCULAR VOLUME [1]: 67 fL | MONOCYTE [1]: 4.67% | NEUTROPHIL [1]: 9% | NUCLEATED RED BLOOD CELLS [1]: 0 /100WBC | PLATELET COUNT [1]: 1151 x10E3/uL | ALANINE AMINOTRANSFERASE [1]: 97.67 u/L | ALBUMIN [1]: 4.07 G/DL | ALKALINE PHOSPHATASE [1]: 607.67 u/L | ASPARTATE AMINOTRANSFERASE [1]: 101 u/L | BLOOD UREA NITROGEN [1]: 13.33 mg/dL | CARBON DIOXIDE [1]: 36 mmol/L | CHLORIDE [1]: 99.67 MEQ/L | CHOLESTEROL [1]: 75.67 mg/dL | CREATINE PHOSPHOKINASE [1]: 279.67 u/L | CREATININE [1]: 0.16 mg/dL | GLUCOSE [1]: 164 mg/dL | LACTATE DEHYDROGENASE [1]: 115 u/L | LIPASE [1]: 12.67 u/L | PHOSPHORUS [1]: 8.77 mg/dL | POTASSIUM [1]: 5.79 MEQ/L | SODIUM [1]: 142.83 MEQ/L | TOTAL BILIRUBIN [1]: 0.27 mg/dL | TOTAL PROTEIN [1]: 5.8 G/DL | URIC ACID [1]: 0.67 mg/dL | ABSOLUTE BASOPHIL [2]: 0 CELLS/uL | ABSOLUTE EOSINOPHIL [2]: 0 CELLS/uL | ABSOLUTE LYMPHOCYTE [2]: 4426.33 CELLS/uL | ABSOLUTE MONOCYTE [2]: 102.67 CELLS/uL | ABSOLUTE SEGMENTED NEUTROPHIL [2]: 337.67 CELLS/uL | BASOPHIL [2]: 0% | EOSINOPHIL [2]: 0% | ERYTHROCYTE COUNT [2]: 5.31 x10E6/uL | HEMATOCRIT [2]: 32.5% | HEMOGLOBIN [2]: 13.17 G/DL | LEUKOCYTE COUNT [2]: 4.87 x10E3/uL | LYMPHOCYTE [2]: 90.33% | MEAN CORPUSCULAR HEMOGLOBIN [2]: 24.93 pg | MEAN CORPUSCULAR HEMOGLOBIN CONCENTRATION [2]: 40.67 G/DL | MEAN CORPUSCULAR VOLUME [2]: 61.33 fL | MONOCYTE [2]: 2.33% | NEUTROPHIL [2]: 7.33% | NUCLEATED RED BLOOD CELLS [2]: 0.33 /100WBC | PLATELET COUNT [2]: 848.33 x10E3/uL | ALANINE AMINOTRANSFERASE [2]: 59.67 u/L | ALBUMIN [2]: 3.87 G/DL | ALKALINE PHOSPHATASE [2]: 452 u/L | ASPARTATE AMINOTRANSFERASE [2]: 81.33 u/L | BLOOD UREA NITROGEN [2]: 13.67 mg/dL | CARBON DIOXIDE [2]: 26.33 mmol/L | CHLORIDE [2]: 103.67 MEQ/L | CHOLESTEROL [2]: 65.67 mg/dL | CREATINE PHOSPHOKINASE [2]: 355.33 u/L | CREATININE [2]: 0.14 mg/dL | GLUCOSE [2]: 171.33 mg/dL | LACTATE DEHYDROGENASE [2]: 118 u/L | LIPASE [2]: 11.33 u/L | PHOSPHORUS [2]: 11.13 mg/dL | POTASSIUM [2]: 5.18 MEQ/L | SODIUM [2]: 143.17 MEQ/L | TOTAL BILIRUBIN [2]: 0.2 mg/dL | TOTAL PROTEIN [2]: 5.87 G/DL | URIC ACID [2]: 0.63 mg/dL | ABSOLUTE BASOPHIL [3]: 0 CELLS/uL | ABSOLUTE EOSINOPHIL [3]: 25.33 CELLS/uL | ABSOLUTE LYMPHOCYTE [3]: 7491.33 CELLS/uL | ABSOLUTE MONOCYTE [3]: 125 CELLS/uL | ABSOLUTE SEGMENTED NEUTROPHIL [3]: 858.33 CELLS/uL | BASOPHIL [3]: 0% | EOSINOPHIL [3]: 0.33% | ERYTHROCYTE COUNT [3]: 5.1 x10E6/uL | HEMATOCRIT [3]: 33.1% | HEMOGLOBIN [3]: 12.87 G/DL | LEUKOCYTE COUNT [3]: 8.5 x10E3/uL | LYMPHOCYTE [3]: 88% | MEAN CORPUSCULAR HEMOGLOBIN [3]: 25.23 pg | MEAN CORPUSCULAR HEMOGLOBIN CONCENTRATION [3]: 38.87 G/DL | MEAN CORPUSCULAR VOLUME [3]: 64.93 fL | MONOCYTE [3]: 1.33% | NEUTROPHIL [3]: 10.33% | NUCLEATED RED BLOOD CELLS [3]: 0 /100WBC | PLATELET COUNT [3]: 1037.67 x10E3/uL | ALANINE AMINOTRANSFERASE [3]: 125.67 u/L | ALBUMIN [3]: 4.17 G/DL | ALKALINE PHOSPHATASE [3]: 434 u/L | ASPARTATE AMINOTRANSFERASE [3]: 117 u/L | BLOOD UREA NITROGEN [3]: 11 mg/dL | CARBON DIOXIDE [3]: 35 mmol/L | CHLORIDE [3]: 106.33 MEQ/L | CHOLESTEROL [3]: 78 mg/dL | CREATINE PHOSPHOKINASE [3]: 456.33 u/L | CREATININE [3]: 0.28 mg/dL | GLUCOSE [3]: 158.67 mg/dL | LACTATE DEHYDROGENASE [3]: 119.33 u/L | LIPASE [3]: 11 u/L | PHOSPHORUS [3]: 8.8 mg/dL | POTASSIUM [3]: 5.65 MEQ/L | SODIUM [3]: 146.27 MEQ/L | TOTAL BILIRUBIN [3]: 0.13 mg/dL | TOTAL PROTEIN [3]: 5.7 G/DL | URIC ACID [3]: 0.63 mg/dL | ABSOLUTE BASOPHIL [4]: 0 CELLS/uL | ABSOLUTE EOSINOPHIL [4]: 83.33 CELLS/uL | ABSOLUTE LYMPHOCYTE [4]: 10811.33 CELLS/uL | ABSOLUTE MONOCYTE [4]: 335.67 CELLS/uL | ABSOLUTE SEGMENTED NEUTROPHIL [4]: 1536.33 CELLS/uL | BASOPHIL [4]: 0% | EOSINOPHIL [4]: 0.33% | ERYTHROCYTE COUNT [4]: 5.57 x10E6/uL | HEMATOCRIT [4]: 36.37% | HEMOGLOBIN [4]: 13.93 G/DL | LEUKOCYTE COUNT [4]: 12.77 x10E3/uL | LYMPHOCYTE [4]: 87.33% | MEAN CORPUSCULAR HEMOGLOBIN [4]: 25 pg | MEAN CORPUSCULAR HEMOGLOBIN CONCENTRATION [4]: 38.33 G/DL | MEAN CORPUSCULAR VOLUME [4]: 65.23 fL | MONOCYTE [4]: 2.33% | NEUTROPHIL [4]: 10% | NUCLEATED RED BLOOD CELLS [4]: 0 /100WBC | PLATELET COUNT [4]: 1176 x10E3/uL | ALANINE AMINOTRANSFERASE [4]: 52 u/L | ALBUMIN [4]: 4.27 G/DL | ALKALINE PHOSPHATASE [4]: 326 u/L | ASPARTATE AMINOTRANSFERASE [4]: 65.67 u/L | BLOOD UREA NITROGEN [4]: 16 mg/dL | CARBON DIOXIDE [4]: 24.67 mmol/L | CHLORIDE [4]: 108.33 MEQ/L | CHOLESTEROL [4]: 74.67 mg/dL | CREATINE PHOSPHOKINASE [4]: 187 u/L | CREATININE [4]: 0.16 mg/dL | GLUCOSE [4]: 176.33 mg/dL | LACTATE DEHYDROGENASE [4]: 75.67 u/L | LIPASE [4]: 10.33 u/L | PHOSPHORUS [4]: 10.53 mg/dL | POTASSIUM [4]: 4.45 MEQ/L | SODIUM [4]: 149.7 MEQ/L | TOTAL BILIRUBIN [4]: 0.1 mg/dL | TOTAL PROTEIN [4]: 6.33 G/DL | URIC ACID [4]: 0.6 mg/dL
